# According to patent US12581252B2, “Substituted pyrrolo[3,4-b]pyridines as PI3K-α inhibitors” (Relay Therapeutics, Inc., priority 2020, dated 2026):
# Target: H1047R PIK3CA enzyme (Homo sapiens, UniProt P42336, H1047R)
# Test: ADP-Glo Biochemical PIK3CA Kinase Assay
# H1047R PIK3CA enzyme, sequence (P42336 whole entry H1047R): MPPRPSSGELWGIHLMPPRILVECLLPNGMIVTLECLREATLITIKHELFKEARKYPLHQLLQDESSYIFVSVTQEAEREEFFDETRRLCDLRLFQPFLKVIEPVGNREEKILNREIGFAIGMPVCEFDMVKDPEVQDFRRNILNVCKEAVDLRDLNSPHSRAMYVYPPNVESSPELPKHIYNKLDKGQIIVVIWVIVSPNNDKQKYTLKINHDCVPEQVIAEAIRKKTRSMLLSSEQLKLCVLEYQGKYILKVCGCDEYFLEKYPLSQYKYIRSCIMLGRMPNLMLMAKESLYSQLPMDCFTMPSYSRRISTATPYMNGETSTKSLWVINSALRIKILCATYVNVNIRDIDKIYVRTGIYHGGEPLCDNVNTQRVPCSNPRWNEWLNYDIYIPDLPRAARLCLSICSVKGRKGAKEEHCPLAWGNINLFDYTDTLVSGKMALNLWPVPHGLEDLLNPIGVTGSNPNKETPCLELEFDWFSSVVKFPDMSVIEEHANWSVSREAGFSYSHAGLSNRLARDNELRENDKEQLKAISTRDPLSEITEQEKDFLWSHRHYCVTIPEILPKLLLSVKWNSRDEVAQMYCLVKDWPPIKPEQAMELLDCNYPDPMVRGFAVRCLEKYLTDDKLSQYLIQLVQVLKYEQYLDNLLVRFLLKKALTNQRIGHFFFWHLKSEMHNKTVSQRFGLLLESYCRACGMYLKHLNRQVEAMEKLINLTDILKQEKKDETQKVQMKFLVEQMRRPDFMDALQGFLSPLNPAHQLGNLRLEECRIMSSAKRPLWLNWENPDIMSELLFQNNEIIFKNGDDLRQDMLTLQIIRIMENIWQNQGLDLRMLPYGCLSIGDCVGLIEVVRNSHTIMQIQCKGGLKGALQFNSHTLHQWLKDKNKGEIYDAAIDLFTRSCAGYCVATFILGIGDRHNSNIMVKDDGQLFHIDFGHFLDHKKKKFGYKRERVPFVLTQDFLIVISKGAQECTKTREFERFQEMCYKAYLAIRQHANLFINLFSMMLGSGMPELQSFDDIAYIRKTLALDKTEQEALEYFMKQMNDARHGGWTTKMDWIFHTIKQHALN
# H1047R PIK3CA enzyme, sequence (P27986 whole entry partner): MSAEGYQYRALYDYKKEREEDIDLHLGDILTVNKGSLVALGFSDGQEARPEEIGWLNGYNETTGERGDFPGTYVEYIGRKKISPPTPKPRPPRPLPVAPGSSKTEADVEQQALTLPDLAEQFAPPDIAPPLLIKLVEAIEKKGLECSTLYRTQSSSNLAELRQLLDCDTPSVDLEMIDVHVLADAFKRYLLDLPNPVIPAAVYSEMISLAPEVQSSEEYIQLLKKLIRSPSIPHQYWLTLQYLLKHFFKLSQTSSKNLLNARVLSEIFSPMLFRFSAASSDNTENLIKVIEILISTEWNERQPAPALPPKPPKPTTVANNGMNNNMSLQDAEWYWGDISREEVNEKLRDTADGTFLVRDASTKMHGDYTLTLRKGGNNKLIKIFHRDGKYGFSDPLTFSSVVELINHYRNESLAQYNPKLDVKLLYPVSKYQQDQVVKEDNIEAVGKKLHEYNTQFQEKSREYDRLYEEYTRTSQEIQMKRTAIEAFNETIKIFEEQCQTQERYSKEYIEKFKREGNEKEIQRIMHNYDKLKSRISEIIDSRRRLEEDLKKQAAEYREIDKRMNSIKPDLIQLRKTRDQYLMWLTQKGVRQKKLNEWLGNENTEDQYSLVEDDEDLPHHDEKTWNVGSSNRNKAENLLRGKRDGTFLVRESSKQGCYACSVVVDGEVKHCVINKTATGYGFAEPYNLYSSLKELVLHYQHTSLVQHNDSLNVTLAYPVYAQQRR
row,Compound,IC50
1,C=Cc1ccc(NC(=O)c2nsc3ccccc23)c2c1C(=O)NC2c1ccccc1C (stereo not drawn) [Compound I-205],100 to 500 nM
2,O=C1NC(c2cc(F)ccc2Cl)c2c(NCC(=O)N3CCCCC3)cc(-c3ccc4ncnn4c3)cc21 (stereo not drawn) [Compound I-2038],10000 to 100000 nM
3,O=C(Nc1cc(-c2cn3ncnc3cc2F)cc2c1C(c1cc(F)ccc1Cl)NC2=O)c1cc(F)cc(C(F)(F)F)c1 (stereo not drawn) [Compound I-1652],≤ 100 nM
4,N#Cc1cnc2cnc(-c3cc(NC(=O)c4cc(F)cc(C(F)(F)F)c4)c4c(c3)C(=O)NC4c3cc(F)ccc3Cl)cn12 (stereo not drawn) [Compound I-1767],≤ 100 nM
5,O=C1NC(c2cc(F)ccc2Cl)c2c(NC(=O)N3CCc4cnccc43)cccc21 (stereo not drawn) [Compound I-2191],1000 to 10000 nM
6,O=C(Nc1cc(OS(=O)(=O)F)cc2c1C(c1cc(F)ccc1Cl)NC2=O)c1cc(F)cc(C(F)(F)F)c1 (stereo not drawn) [Compound I-483],≤ 100 nM
7,CNC(=O)c1cc(NC(=O)c2cc(F)cc(C(F)(F)F)c2)c2c(c1)C(=O)N[C@H]2c1ccccc1C [Compound I-212],≤ 100 nM
8,Cn1cnc2ccc(-c3cc(NC(=O)c4cc(F)cc(C(F)(F)F)c4)c4c(c3)C(=O)NC4c3cc(F)ccc3Cl)cc21 (stereo not drawn) [Compound I-1027],≤ 100 nM
9,"O=C(Nc1cc(OC[C@@H]2CCO2)cc2c1[C@@H](c1cc(F)ccc1Cl)NC2=O)c1cc(F)cc(C(F)(F)F)c1 (single isomer, unassigned) [Compound I-1519]",10000 to 100000 nM
10,Cn1cc(-c2cc(NC(=O)c3cc(F)cc(C(F)(F)F)c3)c3c(n2)C(=O)N[C@@H]3c2cc(F)ccc2Cl)ccc1=O [Compound I-587],1000 to 10000 nM
11,O=C(Nc1cc(-c2ccc3nccn3c2)cc2c1[C@@H](c1cc(F)ccc1Cl)NC2=O)c1cc(F)cc(C(F)(F)F)c1 [Compound I-826],500 to 1000 nM
12,"CCC[C@]1(O)CN(C(=O)Nc2cccc3c2[C@@H](c2cc(F)ccc2Cl)NC3=O)c2ccc(F)cc21 (single isomer, unassigned) [Compound I-2456]",1000 to 10000 nM
13,O=C(Nc1cc(-c2cn[nH]c2)cc2c1[C@@H](c1cc(F)ccc1Cl)NC2=O)c1cc(F)cc(C(F)(F)F)c1 [Compound I-1079],≤ 100 nM
14,Nc1nc2cc(-c3cc(NC(=O)c4cc(F)cc(C(F)(F)F)c4)c4c(c3)C(=O)NC4c3cc(F)ccc3Cl)ccc2o1 (stereo not drawn) [Compound I-1531],≤ 100 nM
15,CN(C)S(=O)(=O)n1cc(-c2cc(NC(=O)c3cc(F)cc(C(F)(F)F)c3)c3c(c2)C(=O)NC3c2cc(F)ccc2Cl)cn1 (stereo not drawn) [Compound I-1592],≤ 100 nM
16,O=C1NC(c2cc(F)ccc2Cl)c2c(NC(=O)N3CCNc4ccccc43)cc(Br)cc21 (stereo not drawn) [Compound I-716],1000 to 10000 nM
17,O=C(Nc1cc(Br)cc2c1C(c1ccc(F)cc1Cl)NC2=O)c1cc(F)cc(C(F)(F)F)c1 (stereo not drawn) [Compound I-756],100 to 500 nM
18,O=C1N[C@H](c2cc(F)ccc2Cl)c2c(NC(=O)N3C[C@@H](O)C[C@@H]3CC(F)(F)F)cccc21 (racemic) [Compound I-2165],10000 to 100000 nM
19,O=C(Nc1cc(Br)cc2c1[C@@H](c1ccccc1C(F)F)NC2=O)c1cc(F)cc(C(F)(F)F)c1 [Compound I-790],1000 to 10000 nM
20,Cc1ccccc1C1NC(=O)c2cccc(NC(=O)c3coc4c(F)cc(Cl)cc34)c21 (stereo not drawn) [Compound I-81],≤ 100 nM
21,Cc1ccccc1C1NC(=O)c2cccc(-c3nnc(-c4ccccc4)[nH]3)c21 (stereo not drawn) [Compound I-398],10000 to 100000 nM
22,O=C(Nc1cc(CS(=O)(=O)c2ccccc2)cc2c1[C@@H](c1cc(F)ccc1Cl)NC2=O)c1cc(F)cc(C(F)(F)F)c1 [Compound I-1593],1000 to 10000 nM
23,Nc1csnc1C(=O)Nc1cc(Br)cc2c1C(c1cc(F)ccc1Cl)NC2=O (stereo not drawn) [Compound I-1425],10000 to 100000 nM
24,O=C(Nc1cc(-c2ccc3ncnn3c2)cc2c1C(c1cc(F)ccc1Cl)NC2=O)c1cc2ccccc2[nH]1 (stereo not drawn) [Compound I-1609],1000 to 10000 nM

row,Compound,IC50
1,CN(C)S(=O)(=O)Cc1cc(NC(=O)c2cc(F)cc(C(F)(F)F)c2)c2c(c1)C(=O)NC2c1cc(F)ccc1Cl (stereo not drawn) [Compound I-1275],≤ 100 nM
2,COc1ccc2c(c1)N(C(=O)Nc1cccc3c1C(c1cc(F)ccc1Cl)NC3=O)CC2 (stereo not drawn) [Compound I-2439],1000 to 10000 nM
3,Cc1ccccc1C1NC(=O)c2cccc(NC(=O)N3CCc4c(F)cc(F)cc43)c21 (stereo not drawn) [Compound I-104],100 to 500 nM
4,O=C1NC(c2cc(F)ccc2Cl)c2c(NC(=O)N3CC(=O)N4CCCC4C3)cc(Br)cc21 (stereo not drawn) [Compound I-766],10000 to 100000 nM
5,"Cc1ccccc1[C@@H]1NC(=O)c2nccc(NC(=O)N3C[C@@H](C)c4ccccc43)c21 (single isomer, unassigned) [Compound I-303]",10000 to 100000 nM
6,O=C(Nc1ccnc2c1C(c1ccccc1Cl)NC2=O)c1cc(F)cc(C(F)(F)F)c1 (stereo not drawn) [Compound I-208],500 to 1000 nM
7,O=C(Nc1cc(C(O)CN2CC(F)(F)C2)cc2c1C(c1cc(F)ccc1Cl)NC2=O)c1cc(F)cc(Cl)c1 (stereo not drawn) [Compound I-334],100 to 500 nM
8,O=C1NC(c2cc(F)ccc2Cl)c2c(NC(=O)N3CCSC3)cccc21 (stereo not drawn) [Compound I-2428],10000 to 100000 nM
9,Cc1ncc(Nc2cc(NC(=O)c3cc(F)cc(C(F)(F)F)c3)c3c(c2)C(=O)NC3c2cc(F)ccc2Cl)cn1 (stereo not drawn) [Compound I-1245],≤ 100 nM
10,O=C(Nc1cc(NC(=O)C2CCOCC2)cc2c1C(c1cc(F)ccc1Cl)NC2=O)c1cc(F)cc(C(F)(F)F)c1 (stereo not drawn) [Compound I-347],≤ 100 nM
11,CC(C)n1cc(-c2cc(NC(=O)c3cc(F)cc(C(F)(F)F)c3)c3c(n2)C(=O)N[C@@H]3c2cc(F)ccc2Cl)ccc1=O [Compound I-650],500 to 1000 nM
12,CC(=O)N1CC(Oc2cc(NC(=O)c3cc(F)cc(C(F)(F)F)c3)c3c(c2)C(=O)NC3c2cc(F)ccc2Cl)C1 (stereo not drawn) [Compound I-1251],100 to 500 nM
13,O=C1NC(c2cc(F)ccc2Cl)c2c(NC(=O)C3(O)CCCC(C(F)(F)F)C3)cccc21 (mixture of isomers) [Compound I-2088],10000 to 100000 nM
14,O=C(Nc1cc(-c2ccc3c(c2)OCO3)cc2c1C(c1cc(F)ccc1Cl)NC2=O)c1cc(F)cc(C(F)(F)F)c1 (stereo not drawn) [Compound I-741],≤ 100 nM
15,Cc1ccccc1C1NC(=O)c2cccc(NC(=O)c3nsc4ccc(F)cc34)c21 (stereo not drawn) [Compound I-105],100 to 500 nM
16,O=C1NC(c2cc(F)ccc2Cl)c2c(NC(=O)c3[nH]nnc3CC(F)(F)F)cccc21 (stereo not drawn) [Compound I-2194],10000 to 100000 nM
17,O=C1NC(c2cc(F)ccc2Cl)c2c(Nc3c[nH]c4ccccc34)cc(Br)cc21 (stereo not drawn) [Compound I-1896],10000 to 100000 nM
18,O=C1NC(c2cc(F)ccc2Cl)c2c(Cn3ccc4ccccc4c3=O)cc(-c3ccc4ncnn4c3)cc21 (stereo not drawn) [Compound I-2026],10000 to 100000 nM
19,O=C1NC(c2cc(F)ccc2Cl)c2c(NC(=O)c3noc4c3CCCC4)cccc21 (stereo not drawn) [Compound I-2238],1000 to 10000 nM
20,O=C(Nc1cc(-c2ccn[nH]2)cc2c1C(c1cc(F)ccc1Cl)NC2=O)c1cc(F)cc(C(F)(F)F)c1 (stereo not drawn) [Compound I-815],≤ 100 nM
21,CS(=O)(=O)Oc1cc(NC(=O)c2cc(F)cc(C(F)(F)F)c2)c2c(c1)C(=O)NC2c1cc(F)ccc1Cl (stereo not drawn) [Compound I-1543],≤ 100 nM
22,O=C1N[C@H](c2cc(F)ccc2Cl)c2c(NC(=O)[C@H]3CC[C@@H](C(F)(F)F)C3)cccc21 [Compound I-2083],10000 to 100000 nM
23,Cc1ccccc1C1NC(=O)c2cccc(NC(=O)c3noc4ccc(F)cc34)c21 (stereo not drawn) [Compound I-21],1000 to 10000 nM
24,Cc1nn(C)c(C)c1-c1cc(NC(=O)c2cc(F)cc(Cl)c2)c2c(n1)C(=O)NC2c1cc(F)ccc1Cl (stereo not drawn) [Compound I-410],500 to 1000 nM
